Several values for one entry are separate records, joined by “and”; a condition that tells them apart may be missing. Identical values can stand only once. Toxic doses and inconclusive results are not listed.
System: P388 leukemia ip, CD2F1 mice, survival T/C
Experiment: NCI In Vivo Anticancer Drug Screen. Data for tumor model P388 Leukemia (intraperitoneal) in CD2F1 (CDF1) mice
Conditions: endpoint: median survival time, higher = longer survival
Outline: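 Mice carrying the transplanted tumor received test compound or vehicle. Survival was recorded in each group, and the value is the treated-group measurement divided by that of the vehicle-treated control group.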

COc1cccc2c1C(=O)c1c(O)c3c(c(O)c1C2=O)C[C@@](O)(C(C)=O)C[C@@H]3OC1CC(N)C(O)C(C)O1 (stereo partly specified)
T/C (dose: 0.06 mg/kg/injection, schedule: Q01DX009 (ip), vehicle: water): 104 % of control and 118 % of control | T/C (dose: 0.06 mg/kg/injection, schedule: Q03HX008 (ip), vehicle: saline): 118 % of control | T/C (dose: 0.08 mg/kg/injection, schedule: Q01DX005 (ip), vehicle: saline): 118 % of control | T/C (dose: 0.12 mg/kg/injection, schedule: Q01DX005 (ip), vehicle: water): 114 % of control | T/C (dose: 0.13 mg/kg/injection, schedule: Q03HX008 (ip), vehicle: saline): 120 % of control | T/C (dose: 0.16 mg/kg/injection, schedule: Q01DX005 (ip), vehicle: saline): 150 % of control and 167 % of control | T/C (dose: 0.16 mg/kg/injection, schedule: Q01DX009 (ip), vehicle: saline): 168 % of control | T/C (dose: 0.21 mg/kg/injection, schedule: Q01DX009 (ip), vehicle: water): 150 % of control | T/C (dose: 0.25 mg/kg/injection, schedule: Q01DX005 (ip), vehicle: water): 112 % of control | T/C (dose: 0.25 mg/kg/injection, schedule: Q04DX003 (ip), vehicle: saline): 100 % of control | T/C (dose: 0.32 mg/kg/injection, schedule: Q01DX001 (ip), vehicle: saline): 150 % of control | T/C (dose: 0.32 mg/kg/injection, schedule: Q01DX005 (ip), vehicle: saline): 175 % of control | T/C (dose: 0.32 mg/kg/injection, schedule: Q01DX009 (ip), vehicle: saline): 166 % of control | T/C (dose: 0.32 mg/kg/injection, schedule: Q03HX040 (ip), vehicle: saline): 116 % of control | T/C (dose: 0.39 mg/kg/injection, schedule: Q01DX009 (ip), vehicle: saline): 172 % of control | T/C (dose: 0.42 mg/kg/injection, schedule: Q01DX009 (ip), vehicle: water): 150 % of control and 155 % of control | T/C (dose: 0.5 mg/kg/injection, schedule: Q01DX001 (ip), vehicle: saline): 108 % of control | T/C (dose: 0.5 mg/kg/injection, schedule: Q01DX005 (ip), vehicle: water): 107 % of control | T/C (dose: 0.5 mg/kg/injection, schedule: Q01DX005 (oral), vehicle: water): 105 % of control | T/C (dose: 0.5 mg/kg/injection, schedule: Q01DX010 (ip), vehicle: saline): 163 % of control | T/C (dose: 0.5 mg/kg/injection, schedule: Q04DX003 (ip), vehicle: saline): 109 % of control | T/C (dose: 0.63 mg/kg/injection, schedule: Q01DX001 (ip), vehicle: saline): 166 % of control | T/C (dose: 0.63 mg/kg/injection, schedule: Q01DX009 (ip), vehicle: saline): 171 % of control | T/C (dose: 0.63 mg/kg/injection, schedule: Q03HX040 (ip), vehicle: saline): 112 % of control | T/C (dose: 0.64 mg/kg/injection, schedule: Q01DX001 (ip), vehicle: saline): 160 % of control | T/C (dose: 0.75 mg/kg/injection, schedule: Q04DX003 (ip), vehicle: saline): 110 % of control and 119 % of control | T/C (dose: 0.83 mg/kg/injection, schedule: Q01DX009 (ip), vehicle: water): 164 % of control and 169 % of control | T/C (dose: 1.0 mg/kg/injection, schedule: Q01DX001 (ip), vehicle: saline): 115 % of control | T/C (dose: 1.0 mg/kg/injection, schedule: Q01DX005 (oral), vehicle: water): 102 % of control | T/C (dose: 1.0 mg/kg/injection, schedule: Q01DX010 (ip), vehicle: saline): 172 % of control | T/C (dose: 1.0 mg/kg/injection, schedule: Q04DX002 (ip), vehicle: water): 158 % of control | T/C (dose: 1.0 mg/kg/injection, schedule: Q04DX003 (iv), vehicle: saline): 98 % of control | T/C (dose: 1.08 mg/kg/injection, schedule: Q01DX009 (ip), vehicle: saline): 172 % of control | T/C (dose: 1.08 mg/kg/injection, schedule: Q04DX003 (ip), vehicle: saline): 150 % of control and 152 % of control | T/C (dose: 1.08 mg/kg/injection, schedule: Q04DX003 (ip), vehicle: water): 157 % of control | T/C (dose: 1.25 mg/kg/injection, schedule: Q01DX001 (ip), vehicle: saline): 154 % of control | T/C (dose: 1.25 mg/kg/injection, schedule: Q01DX005 (ip), vehicle: saline): 162 % of control | T/C (dose: 1.25 mg/kg/injection, schedule: Q03HX008 (ip), vehicle: saline): 167 % of control | T/C (dose: 1.3 mg/kg/injection, schedule: Q01DX001 (ip), vehicle: water): 154 % of control | T/C (dose: 1.5 mg/kg/injection, schedule: Q04DX003 (ip), vehicle: saline): 116 % of control and 117 % of control | T/C (dose: 1.67 mg/kg/injection, schedule: Q01DX009 (ip), vehicle: water): 123 % of control | T/C (dose: 1.8 mg/kg/injection, schedule: Q01DX001 (ip), vehicle: water): 162 % of control | T/C (dose: 1.8 mg/kg/injection, schedule: Q01DX009 (ip), vehicle: saline): 163 % of control | T/C (dose: 1.8 mg/kg/injection, schedule: Q04DX003 (ip), vehicle: saline): 154 % of control | T/C (dose: 1.8 mg/kg/injection, schedule: Q04DX003 (ip), vehicle: water): 160 % of control | T/C (dose: 2.0 mg/kg/injection, schedule: Q01DX001 (ip), vehicle: saline): 114 % of control | T/C (dose: 2.0 mg/kg/injection, schedule: Q01DX005 (ip), vehicle: water): 153 % of control | T/C (dose: 2.0 mg/kg/injection, schedule: Q01DX005 (oral), vehicle: water): 114 % of control | T/C (dose: 2.0 mg/kg/injection, schedule: Q03HX024 (ip), vehicle: saline): 156 % of control | T/C (dose: 2.0 mg/kg/injection, schedule: Q04DX003 (iv), vehicle: saline): 102 % of control | T/C (dose: 2.4 mg/kg/injection, schedule: Q01DX001 (ip), vehicle: water): 163 % of control | T/C (dose: 2.5 mg/kg/injection, schedule: Q03HX008 (ip), vehicle: saline): 170 % of control | T/C (dose: 3.0 mg/kg/injection, schedule: Q01DX001 (ip), vehicle: saline): 150 % of control and 153 % of control | T/C (dose: 3.0 mg/kg/injection, schedule: Q01DX009 (ip), vehicle: saline): 104 % of control | T/C (dose: 3.2 mg/kg/injection, schedule: Q01DX001 (ip), vehicle: water): 171 % of control | T/C (dose: 4.0 mg/kg/injection, schedule: Q01DX001 (ip), vehicle: saline): 160 % of control | T/C (dose: 4.0 mg/kg/injection, schedule: Q01DX004 (ip), vehicle: saline): 99 % of control | T/C (dose: 4.0 mg/kg/injection, schedule: Q01DX005 (ip), vehicle: water): 164 % of control | T/C (dose: 4.0 mg/kg/injection, schedule: Q01DX005 (oral), vehicle: water): 104 % of control | T/C (dose: 4.0 mg/kg/injection, schedule: Q04DX003 (iv), vehicle: saline): 104 % of control and 113 % of control and 121 % of control | T/C (dose: 4.2 mg/kg/injection, schedule: Q01DX001 (ip), vehicle: water): 174 % of control | T/C (dose: 4.5 mg/kg/injection, schedule: Q01DX001 (ip), vehicle: saline): 166 % of control | T/C (dose: 4.5 mg/kg/injection, schedule: Q04DX003 (ip), vehicle: saline): 159 % of control | T/C (dose: 5.0 mg/kg/injection, schedule: Q01DX001 (ip), vehicle: saline): 159 % of control and 174 % of control | T/C (dose: 5.0 mg/kg/injection, schedule: Q01DX009 (ip), vehicle: water): 100 % of control | T/C (dose: 5.0 mg/kg/injection, schedule: Q04DX003 (ip), vehicle: saline): 118 % of control | T/C (dose: 5.0 mg/kg/injection, schedule: Q04DX003 (ip), vehicle: water): 118 % of control | T/C (dose: 5.6 mg/kg/injection, schedule: Q01DX001 (ip), vehicle: water): 106 % of control | T/C (dose: 6.0 mg/kg/injection, schedule: Q04DX003 (ip), vehicle: saline): 122 % of control | T/C (dose: 7.5 mg/kg/injection, schedule: Q01DX001 (ip), vehicle: water): 116 % of control | T/C (dose: 8.0 mg/kg/injection, schedule: Q01DX001 (ip), vehicle: saline): 124 % of control | T/C (dose: 8.0 mg/kg/injection, schedule: Q01DX005 (oral), vehicle: water): 102 % of control | T/C (dose: 8.0 mg/kg/injection, schedule: Q04DX003 (iv), vehicle: saline): 150 % of control | T/C (dose: 10.0 mg/kg/injection, schedule: Q01DX009 (ip), vehicle: water): 100 % of control | T/C (dose: 12.0 mg/kg/injection, schedule: Q04DX003 (ip), vehicle: saline): 150 % of control | T/C (dose: 12.5 mg/kg/injection, schedule: Q04DX003 (ip), vehicle: saline): 115 % of control | T/C (dose: 16.0 mg/kg/injection, schedule: Q01DX005 (oral), vehicle: water): 103 % of control | T/C (dose: 16.0 mg/kg/injection, schedule: Q04DX003 (iv), vehicle: saline): 104 % of control | T/C (dose: 20.0 mg/kg/injection, schedule: Q01DX009 (ip), vehicle: water): 110 % of control | T/C (dose: 0.3 micrograms/kg/injection, schedule: Q03HX008 (ip), vehicle: saline): 123 % of control | T/C (dose: 0.6 micrograms/kg/injection, schedule: Q03HX040 (ip), vehicle: saline): 109 % of control | T/C (dose: 7.5 micrograms/kg/injection, schedule: Q03HX024 (ip), vehicle: saline): 155 % of control | T/C (dose: 16.3 micrograms/kg/injection, schedule: Q03HX024 (ip), vehicle: saline): 165 % of control

Cc1cccc(N2C(c3ccccc3)c3ccc(C)cc3NS2=O)c1 (stereo unspecified)
T/C (dose: 60.0 mg/kg/injection, schedule: Q01DX005 (ip), vehicle: saline with Tween-80): 97 % of control | T/C (dose: 120.0 mg/kg/injection, schedule: Q01DX005 (ip), vehicle: saline with Tween-80): 90 % of control | T/C (dose: 240.0 mg/kg/injection, schedule: Q01DX005 (ip), vehicle: saline with Tween-80): 95 % of control

Source: PubChem BioAssay AID330 (DTP/NCI, 2004)
